{"source": "patent US20240368135A1", "about": "(VERTEX PHARMACEUTICALS INCORPORATED, priority 2021, published 2024)", "note": "pIC50: −log10 of the molar value.", "data": [{"target": "human NaV 1.8 (Homo sapiens, UniProt Q9Y5Y9)", "sequence (Q9Y5Y9 126-399 limits assumed)": "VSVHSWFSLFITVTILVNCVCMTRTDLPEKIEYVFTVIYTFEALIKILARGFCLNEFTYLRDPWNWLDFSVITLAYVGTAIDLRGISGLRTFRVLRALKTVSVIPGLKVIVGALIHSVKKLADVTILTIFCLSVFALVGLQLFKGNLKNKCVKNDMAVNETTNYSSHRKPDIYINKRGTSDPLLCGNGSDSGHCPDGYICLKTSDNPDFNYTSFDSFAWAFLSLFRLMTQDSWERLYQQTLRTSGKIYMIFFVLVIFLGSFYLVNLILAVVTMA", "sequence (Q9Y5Y9 660-890 limits assumed)": "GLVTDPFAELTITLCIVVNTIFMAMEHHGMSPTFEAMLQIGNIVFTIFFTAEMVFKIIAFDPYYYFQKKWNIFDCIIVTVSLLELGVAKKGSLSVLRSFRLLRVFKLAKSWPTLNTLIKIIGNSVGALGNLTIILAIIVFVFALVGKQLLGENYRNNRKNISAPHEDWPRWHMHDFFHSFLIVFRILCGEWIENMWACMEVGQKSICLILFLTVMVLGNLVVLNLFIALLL", "sequence (Q9Y5Y9 1148-1722 limits assumed)": "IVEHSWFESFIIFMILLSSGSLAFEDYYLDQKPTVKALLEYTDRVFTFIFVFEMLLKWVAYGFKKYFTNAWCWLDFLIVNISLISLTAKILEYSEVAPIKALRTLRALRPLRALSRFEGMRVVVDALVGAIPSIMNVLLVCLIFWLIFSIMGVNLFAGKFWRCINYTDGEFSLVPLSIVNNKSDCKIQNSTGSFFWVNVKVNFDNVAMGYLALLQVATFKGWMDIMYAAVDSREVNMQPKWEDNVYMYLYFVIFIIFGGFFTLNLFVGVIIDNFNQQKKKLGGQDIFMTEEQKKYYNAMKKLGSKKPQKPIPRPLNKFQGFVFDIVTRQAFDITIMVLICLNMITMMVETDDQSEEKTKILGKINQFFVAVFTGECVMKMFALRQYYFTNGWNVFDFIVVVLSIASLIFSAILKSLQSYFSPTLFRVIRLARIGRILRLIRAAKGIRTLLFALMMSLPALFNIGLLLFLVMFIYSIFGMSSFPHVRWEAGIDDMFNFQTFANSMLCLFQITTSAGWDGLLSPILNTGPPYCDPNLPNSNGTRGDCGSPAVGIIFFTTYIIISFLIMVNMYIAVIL", "assay": "E-VIPR assay detecting and measuring NaV inhibition properties", "assay_type": "cell-based", "details": "HEK cells expressing truncated human NaV 1.8; in the presence of human serum (compound numbers followed by *); read-out: IC50 in the E-VIPR Assay, performed in the presence of human serum", "procedure,_shortened": "(§1)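 Membrane potential was followed by coumarin/oxonol FRET during electrical field stimulation of matrigel-seeded HEK cells carrying truncated human NaV1.8 plus KIR2.1. Dosing used 11 points, 3-fold steps, top 300 nM final, 0.625% DMSO, with or without 25% human serum.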", "values": [{"compound": "COc1cc(F)ccc1[C@@H]1C[C@](C)(C(F)(F)F)O[C@H]1C(=O)Nc1ccnc(S(C)(=O)=O)c1", "note": "(stereo in doubt) [Compound 714, rel-(2R,3S,5R)-3-(4-fluoro-2-methoxyphenyl)-5-methyl-N-(2-(methylsulfonyl)pyridin-4-yl)-5-(trifluoromethyl)tetrahydrofuran-2-carboxamide]", "pIC50": "6.00 to 7.00"}, {"compound": "COc1c([C@H]2[C@H](C(=O)Nc3cc(C(O)CO)ncc3F)O[C@@](C)(C(F)(F)F)[C@H]2C)ccc(F)c1C", "note": "(single isomer, unassigned) [Compound 140]", "pIC50": "7.00 to 8.00"}]}, {"target": "human NaV 1.8 (Homo sapiens, UniProt Q9Y5Y9)", "assay": "E-VIPR assay detecting and measuring NaV inhibition properties", "assay_type": "cell-based", "details": "HEK cells expressing truncated human NaV 1.8; no human serum; read-out: IC50 in the E-VIPR Assay", "procedure,_shortened": "as §1", "values": [{"compound": "COc1c([C@H]2[C@H](C(=O)Nc3ccnc(N4C(=O)CN(C)C[C@H]4C)c3)O[C@@](C)(C(F)(F)F)[C@H]2C)ccc(F)c1F", "note": "[Compound 465, (2R,3S,4S,5R)-3-(3,4-difluoro-2-methoxyphenyl)-N-(2-((R)-2,4-dimethyl-6-oxopiperazin-1-yl)pyridin-4-yl)-4,5-dimethyl-5-(trifluoromethyl)tetrahydrofuran-2-carboxamide]", "pIC50": "> 8.00"}, {"compound": "COc1c([C@H]2[C@H](C(=O)Nc3cc(C(O)CCO)ncc3F)O[C@@](C)(C(F)(F)F)[C@H]2C)ccc(F)c1F", "note": "(single isomer, unassigned) [Compound 256, rel-(2R*,3S*,4S*,5R*)-3-(3,4-difluoro-2-methoxyphenyl)-N-(2-(1,3-dihydroxypropyl)-5-fluoropyridin-4-yl)-4,5-dimethyl-5-(trifluoromethyl)tetrahydrofuran-2-carboxamide]", "pIC50": "> 8.00"}, {"compound": "C[C@H]1[C@@H](c2ccc(F)c(F)c2OCC2COC2)[C@H](C(=O)Nc2cccnc2)O[C@@]1(C)C(F)(F)F", "note": "[Compound 578, (2R,3S,4S,5R)-3-(3,4-difluoro-2-(oxetan-3-ylmethoxy)phenyl)-4,5-dimethyl-N-(pyridin-3-yl)-5-(trifluoromethyl)tetrahydrofuran-2-carboxamide]", "pIC50": "7.00 to 8.00"}, {"compound": "COc1c([C@H]2[C@H](C(=O)Nc3ccnc(N4C[C@H](C)NCC4=O)c3)O[C@@](C)(C(F)(F)F)[C@H]2C)ccc(F)c1F", "note": "[Compound 478, (2R,3S,4S,5R)-3-(3,4-difluoro-2-methoxyphenyl)-4,5-dimethyl-N-(2-((S)-5-methyl-2-oxopiperazin-1-yl)pyridin-4-yl)-5-(trifluoromethyl)tetrahydrofuran-2-carboxamide]", "pIC50": "7.00 to 8.00"}, {"compound": "COc1c([C@H]2[C@H](C(=O)Nc3ccnc(N4CC(N(C)C)CC4=O)c3)O[C@@](C)(C(F)(F)F)[C@H]2C)ccc(F)c1F", "note": "(single isomer, unassigned) [Compound 505, rel-(2R*,3S*,4S*,5R*)-3-(3,4-difluoro-2-methoxyphenyl)-N-(2-(4-(dimethylamino)-2-oxopyrrolidin-1-yl)pyridin-4-yl)-4,5-dimethyl-5-(trifluoromethyl)tetrahydrofuran-2-carboxamide]", "pIC50": "7.00 to 8.00"}, {"compound": "COc1c([C@H]2[C@H](C(=O)Nc3ccnc(N4C[C@@H]5CC[C@H](C4=O)N5C)c3)O[C@@](C)(C(F)(F)F)[C@H]2C)ccc(F)c1F", "note": "(single isomer, unassigned) [Compound 504, rel-(2R*,3S*,4S*,5R*)-3-(3,4-difluoro-2-methoxyphenyl)-4,5-dimethyl-N-(2-((1R,5S)-8-methyl-2-oxo-3,8-diazabicyclo[3.2.1]octan-3-yl)pyridin-4-yl)-5-(trifluoromethyl)tetrahydrofuran-2-carboxamide]", "pIC50": "7.00 to 8.00"}, {"compound": "COc1c([C@H]2[C@H](C(=O)NCC3CCOC3)O[C@@](C)(C(F)(F)F)[C@H]2C)ccc(F)c1F", "note": "(stereo partly drawn) [Compound 279, (2R,3S,4S,5R)-3-(3,4-difluoro-2-methoxyphenyl)-4,5-dimethyl-N-((tetrahydrofuran-3-yl)methyl)-5-(trifluoromethyl)tetrahydrofuran-2-carboxamide]", "pIC50": "≤ 6.00"}, {"compound": "COCCOc1c([C@H]2[C@H](C(=O)Nc3ccnc(C(O)CO)c3)O[C@@](C)(C(F)(F)F)[C@H]2C)ccc(F)c1F", "note": "(stereo partly drawn) [Compound 647, (2R,3S,4S,5R)-3-[3,4-difluoro-2-(2-methoxyethoxy)phenyl]-N-[2-(1,2-dihydroxyethyl)-4-pyridyl]-4,5-dimethyl-5-(trifluoromethyl)tetrahydrofuran-2-carboxamide]", "pIC50": "> 8.00"}, {"compound": "C[C@H]1[C@@H](c2ccc(F)c(F)c2OCCO)[C@H](C(=O)Nc2cnn(CC#N)c2)O[C@@]1(C)C(F)(F)F", "note": "[Compound 549, (2R,3S,4S,5R)-N-(1-(cyanomethyl)-1H-pyrazol-4-yl)-3-(3,4-difluoro-2-(2-hydroxyethoxy)phenyl)-4,5-dimethyl-5-(trifluoromethyl)tetrahydrofuran-2-carboxamide]", "pIC50": "6.00 to 7.00"}, {"compound": "C[C@H]1[C@@H](c2ccc(F)c(F)c2OC(F)F)[C@H](C(=O)Nc2ccnc(C(O)CO)c2)O[C@@]1(C)C(F)(F)F", "note": "(single isomer, unassigned) [Compound 82]", "pIC50": "> 8.00"}, {"compound": "COc1c([C@H]2[C@H](C(=O)Nc3ccnc(N4CCC(N)C4=O)c3)O[C@@](C)(C(F)(F)F)[C@H]2C)ccc(F)c1F", "note": "(single isomer, unassigned) [Compound 497, rel-(2R*,3S*,4S*,5R*)-N-(2-(3-amino-2-oxopyrrolidin-1-yl)pyridin-4-yl)-3-(3,4-difluoro-2-methoxyphenyl)-4,5-dimethyl-5-(trifluoromethyl)tetrahydrofuran-2-carboxamide]", "pIC50": "7.00 to 8.00"}, {"compound": "COc1c([C@H]2[C@H](C(=O)Nc3ccnc(N4CCN(C)CC4)c3)O[C@@](C)(C(F)(F)F)[C@H]2C)ccc(F)c1F", "note": "[Compound 312, (2R,3S,4S,5R)-3-(3,4-difluoro-2-methoxyphenyl)-4,5-dimethyl-N-(2-(4-methylpiperazin-1-yl)pyridin-4-yl)-5-(trifluoromethyl)-tetrahydrofuran-2-carboxamide]", "pIC50": "7.00 to 8.00"}, {"compound": "Cc1nn(C(F)F)cc1NC(=O)[C@@H]1O[C@@](C)(C(F)(F)F)[C@@H](C)[C@H]1c1ccc(F)c(F)c1CCN(C)C", "note": "[Compound 678, (2R,3S,4S,5R)—N-(1-(difluoromethyl)-3-methyl-1H-pyrazol-4-yl)-3-(2-(2-(dimethylamino)ethyl)-3,4-difluorophenyl)-4,5-dimethyl-5-(trifluoromethyl)tetrahydrofuran-2-carboxamide]", "pIC50": "6.00 to 7.00"}, {"compound": "COCCn1ccc(NC(=O)[C@@H]2O[C@@](C)(C(F)(F)F)[C@@H](C)[C@H]2c2ccc(F)c(F)c2OCCO)n1", "note": "[Compound 552, (2R,3S,4S,5R)-3-(3,4-difluoro-2-(2-hydroxyethoxy)phenyl)-N-(1-(2-methoxyethyl)-1H-pyrazol-3-yl)-4,5-dimethyl-5-(trifluoromethyl)tetrahydrofuran-2-carboxamide]", "pIC50": "≤ 6.00"}, {"compound": "Cc1cn(C)c(COc2c([C@H]3[C@H](C(=O)Nc4cccnc4)O[C@@](C)(C(F)(F)F)[C@H]3C)ccc(F)c2F)n1", "note": "[Compound 650, (2R,3S,4S,5R)-3-(2-((1,4-dimethyl-1H-imidazol-2-yl)methoxy)-3,4-difluorophenyl)-4,5-dimethyl-N-(pyridin-3-yl)-5-(trifluoromethyl)tetrahydrofuran-2-carboxamide]", "pIC50": "7.00 to 8.00"}, {"compound": "Cc1cc(NC(=O)[C@@H]2O[C@@](C)(C(F)(F)F)[C@@H](C)[C@H]2c2ccc(F)c(F)c2OCCO)ccn1", "note": "[Compound 560, (2R,3S,4S,5R)-3-(3,4-difluoro-2-(2-hydroxyethoxy)phenyl)-4,5-dimethyl-N-(2-methylpyridin-4-yl)-5-(trifluoromethyl)tetrahydrofuran-2-carboxamide]", "pIC50": "7.00 to 8.00"}, {"compound": "COc1c(C2C(C(=O)Nc3ccc(P(C)(C)=O)cc3)OC(C)(C(F)(F)F)C2C)ccc(F)c1F", "note": "(single isomer, unassigned) [Compound 39, 3-(3,4-difluoro-2-methoxy-phenyl)-N-(4-dimethylphosphorylphenyl)-4,5-dimethyl-5-(trifluoromethyl)tetrahydrofuran-2-carboxamide]", "pIC50": "6.00 to 7.00"}, {"compound": "COc1c([C@H]2[C@H](C(=O)Nc3ccc(-c4nnc(C)o4)nc3)O[C@@](C)(C(F)(F)F)[C@H]2C)ccc(F)c1F", "note": "[Compound 398, (2R,3S,4S,5R)-3-(3,4-difluoro-2-methoxyphenyl)-4,5-dimethyl-N-(6-(5-methyl-1,3,4-oxadiazol-2-yl)pyridin-3-yl)-5-(trifluoromethyl)-tetrahydrofuran-2-carboxamide]", "pIC50": "7.00 to 8.00"}, {"compound": "COc1c([C@H]2[C@H](C(=O)Nc3cnc4c(c3)CCC4O)O[C@@](C)(C(F)(F)F)[C@H]2C)ccc(F)c1F", "note": "(single isomer, unassigned) [Compound 17]", "pIC50": "7.00 to 8.00"}, {"compound": "COc1c([C@H]2[C@H](C(=O)NC(C)c3ccn[nH]3)O[C@@](C)(C(F)(F)F)[C@H]2C)ccc(F)c1F", "note": "(stereo partly drawn) [Compound 275, (2R,3S,4S,5R)-N-(1-(1H-pyrazol-5-yl)ethyl)-3-(3,4-difluoro-2-methoxyphenyl)-4,5-dimethyl-5-(trifluoromethyl)tetrahydrofuran-2-carboxamide]", "pIC50": "≤ 6.00"}, {"compound": "COc1c([C@H]2[C@H](C(=O)Nc3ccc(NC(C)=O)nc3)O[C@@](C)(C(F)(F)F)[C@H]2C)ccc(F)c1F", "note": "[Compound 525, (2R,3S,4S,5R)-N-(6-acetamido-3-pyridyl)-3-(3,4-difluoro-2-methoxy-phenyl)-4,5-dimethyl-5-(trifluoromethyl)tetrahydrofuran-2-carboxamide]", "pIC50": "7.00 to 8.00"}, {"compound": "COc1c([C@H]2[C@H](C(=O)NC3CCCCNC3=O)O[C@@](C)(C(F)(F)F)[C@H]2C)ccc(F)c1F", "note": "(stereo partly drawn) [Compound 299, (2R,3S,4S,5R)-3-(3,4-difluoro-2-methoxyphenyl)-4,5-dimethyl-N-(2-oxoazepan-3-yl)-5-(trifluoromethyl)tetrahydrofuran-2-carboxamide]", "pIC50": "≤ 6.00"}, {"compound": "COc1c([C@@H]2[C@@H](C(=O)Nc3ccnc(C(=O)O)c3)O[C@](C)(C(F)(F)F)[C@@H]2C)ccc(F)c1C(F)F", "note": "(single isomer, unassigned) [Compound 175]", "pIC50": "6.00 to 7.00"}]}]}
